Holding throughout (assay type): cell-based
The test system of one assay is C. botulinum spores. The assay is described as follows: microbe, parasite or virus in culture. As to conditions: for MIC / MBC: Clostridium botulinum; for MIC: read-out: Sporostatic MIC (mM); for MBC: read-out: Sporicidal MIC (mM).
The next assay deals with P. italicum. The assay is described as follows: Antifungal combination of potassium sorbate and vanillin (MIC, FIC isobologram). To be noted: Penicillium italicum.
The subject of another assay is P. digitatum. Described as above. As to conditions: Penicillium digitatum.
The next assay concerns P. glabrum. The description is as above.
The test system of the next assay is Pseudomonas aeruginosa. Description: Bactericidal / inhibitory concentration against Pseudomonas aeruginosa.

Converted amounts (≈) assume the structure as drawn. Some results are limits rather than exact numbers.

As to `CC(=O)C=O` [Pyruvaldehyde], in the assay with C. botulinum spores, the “Sporicidal MIC” value stood at 156 mM and the “Sporostatic MIC” value is on record as 2.44 mM.
`O=CC=Cc1ccccc1` [Cinnamaldehyde]: in the assay on C. botulinum spores, the MIC turned out to be 0.78 mM (≈ 103 µg/mL).
On the same count and under the same terms, the value for `O=CC(=O)c1ccccc1` [Phenylglyoxal] was 0.6 mM (≈ 80.5 µg/mL).
Still for that read-out and setting: the value for `CCCCCC(C=O)=Cc1ccccc1` [α-Amylcinnamaldehyde] was 0.6 mM (≈ 121 µg/mL).
The same measure, in the same setting: the value for `O=CCc1ccccc1` [Phenylacetaldehyde] was 0.6 mM (≈ 72.1 µg/mL).
As for `COc1cc(C=O)ccc1O` [Vanillin], the MIC in the assay on P. italicum (potassium sorbate 0 PPM) came to 1100 µg/mL; with P. italicum (potassium sorbate 100 PPM) it was 300 µg/mL; in the assay on P. italicum (potassium sorbate 150 PPM), 100 µg/mL; with P. digitatum (potassium sorbate 0 PPM), 1100 µg/mL; in the assay on P. digitatum (potassium sorbate 50 PPM) it was 300 µg/mL; in the assay with P. digitatum (potassium sorbate 100 PPM), 100 µg/mL. For the same compound, the MIC with C. botulinum spores is 0.6 mM (≈ 91.3 µg/mL); in the assay on P. glabrum (potassium sorbate 0 PPM), 1200 µg/mL; with P. glabrum (potassium sorbate 100 PPM) it was 1100 µg/mL; in the assay with P. glabrum (potassium sorbate 300 PPM), 500 µg/mL; in the assay on P. glabrum (potassium sorbate 500 PPM), 100 µg/mL. For the same compound, in the assay on C. botulinum spores, the MBC was determined as 1.25 mM (≈ 190 µg/mL).
Take `CCCCCCC=O` [Hepaldehyde]: in the assay with C. botulinum spores, the “Sporicidal MIC” value was >2500 mM and the “Sporostatic MIC” value came out at 0.60 mM.
With benzalkonium chloride, the figures for the “Concentration that kills Pseudomonas aeruginosa” value in the assay on Pseudomonas aeruginosa (benzalkonium chloride alone) and with Pseudomonas aeruginosa (when aloe vera juice is present at 10%) were 0.13% and 0.10%, respectively.
For the compound `O=Cc1ccccc1` [Benzaldehyde], the MIC in the assay on C. botulinum spores was determined as 0.6 mM (≈ 63.7 µg/mL).
On the same count and under the same terms, for `O=Cc1ccc2c(c1)OCO2` [Piperonal] the value was 0.6 mM (≈ 90.1 µg/mL); for `CCCCC=O` [Valeraldehyde], 2.44 mM (≈ 210 µg/mL).
Take `CC(C)C=O` [Isobutyraldehyde]: in the assay on C. botulinum spores, the MBC was 39 mM (≈ 2810 µg/mL) and the MIC was found to be 0.6 mM (≈ 43.3 µg/mL).
`CC=O` [Acetaldehyde]: the MIC in the assay with C. botulinum spores is 0.78 mM (≈ 34.4 µg/mL).

For the origin of these results see patent publication US20220280587A1, “MEDICAL GELS CONTAINING A QUATERNARY AMMONIUM COMPOUND, PHENOXYETHANOL, ALOE VERA JUICE, AND NATURAL SPORICIDAL MOISTURIZERS” (priority 2021, published 2022).
